Data set [1] relates to hBMEC mono-cultures. Nature of the data set: Maximal TEER of hBMEC mono-cultures under different culture conditions, CellZscope. The conditions noted are these: collagen type I coating.
Method: For the screening of 24-well tissue culture inserts from different providers (Corning®, Greiner Bio-One®, BD Falcon®, Millipore®, Nunc®, and Brand®), each endothelial cell line (hCMEC/D3 (cultured with growth medium 20% FBS), hBMEC, TY10, and BB19) was seeded separately on the apical side of the filter membrane at a density varying between 1.5 × 10^4 and 17 × 10^4 cells/cm^2. Prior to seeding, the membranes were coated with rat-tail collagen type I. The tissue culture inserts were placed into a 24-well cell module of a CellZscope system (NanoAnalytics, Münster, Germany) [30] which was placed inside an incubator (37°C and 5% CO2). For in vitro models with TY10 cells, further experiments were performed for which the CellZscope system was first placed at 33°C (5% CO2) for 2 days and subsequently transferred to 37°C (5% CO2). The medium was refreshed every 2–4 days. TEER values were recorded in real-time every hour. TEER values for cell layers, expressed in Ωcm^2, were obtained by subtracting the TEER of a coated control insert without cells from a coated insert with cells. After placing the CellZscope system into the incubator, the cell module needs at least 6 h to reach 37°C. Since TEER values are highly temperature sensitive [36], recorded TEER values in this time period were not considered to be valid and are not reported. For each in vitro experiment, 2 or 3 replicates were measured. Results are expressed as means ± S.E.M. In addition to TEER values, the CellZscope system monitors the cell layer capacitance (CCL) which reflects the membrane surface area. CCL values in the range of 0.5-5.0 μF/cm^2 indicate cell confluency and validate TEER values [37, 38]. All reported TEER values in the result section belong to a CCL within this range, if not reported otherwise.
The nature of data set [2]: Paracellular permeability (Papp) of marker compounds through hCMEC/D3 mono-cultures on 24-well inserts. The data set is classed as in vitro ADME. The following applies: human, Greiner Bio-one transparent PET 3.0 μm inserts, mean ± S.E.M. Here is the method: (§1) To further assess tight junction (TJ) integrity of endothelial cell layers, paracellular permeabilities of Na-F (MW 376.27) and LY (MW 550.39) were measured. These two fluorescent, non-P-glycoprotein (P-gp) substrate molecules have low BBB penetration and are widely used as barrier integrity markers for in vitro models. To obtain comparative data, hCMEC/D3 cells, hBMEC cells, and TY10 cells were seeded onto 24-well tissue culture inserts (Greiner Bio-one®, transparent polyethylene terephthalate (PET) membrane, 3.0 μm pore size, 0.6 × 10^6 pores/cm^2) and incubated at 37°C (5% CO2) (except TY10 cells) inside the CellZscope cell module (Figure 2). For TY10, the CellZscope system was first put at 33°C (5% CO2) for 2 days and was thereafter transferred to 37°C (5% CO2) for 2 days prior to the permeability assay (Figure 3D). Cell seeding density for hCMEC/D3 and hBMEC was 6.0 × 10^4 cells/cm^2, and for TY10 it was 3.0 × 10^4 cells/cm^2. For hBMEC, contact co-culture models with SVG-A cells (9.0 × 10^4 cells/cm^2) or HBPCT cells (6.0 × 10^4 cells/cm^2) on the basal side of the coated filter membranes were tested.
TEER and CCL values before and after the assays were monitored continuously for integrity control. All experiments for Na-F permeability were carried out at the time indicated with a black arrow in Figures 3A-D. For LY permeability assessment, TEER values were in the same range (graphs not shown). BB19 cells were not included in this permeability study since TEER values were extremely low.
(§2) For the permeability assay, tissue culture inserts were transferred into a 24-well plate containing 700 μL of pre-warmed (37°C) Ringer HEPES buffer (150 mM NaCl, 2.2 mM CaCl2, 0.2 mM MgCl2, 5.2 mM KCl, 2.8 mM glucose, 5 mM HEPES, and 6 mM NaHCO3, pH 7.4) in each well (basolateral compartment). Medium in inserts (apical compartment) was then replaced with 300 μL of a pre-warmed (37°C) working solution containing Na-F or LY at 10 μg/mL in Ringer HEPES buffer. The 24-well plate was incubated at 37°C on an orbital shaker (ELMI DTS-2, Riga, Latvia) with moderate speed (100 rpm) and aliquots of 250 μL of both apical and basolateral compartments were collected after 1 h. All experiments were performed at least in triplicate. Quantification of fluorescence (Na-F: excitation 490 nm, emission 514 nm; LY: excitation 430 nm, emission 535 nm) was carried out using a Chameleon microplate reader (Hidex, Turku, Finland). The apparent permeability coefficient (Papp) for Na-F and LY was calculated in centimeters/second (cm/s) according to the equation: […]

Data set [3] is described as follows: Paracellular permeability (Papp) of marker compounds through hBMEC mono-cultures on 24-well inserts. The data set is classed as in vitro ADME. The following applies: human, mean ± S.E.M. The method, then:
as §1
TEER and CCL values before and after the assays were monitored continuously for integrity control. All experiments for Na-F permeability were carried out at the time indicated with a black arrow in Figures 3A-D. For LY permeability assessment, TEER values were in the same range (graphs not shown). […]
(§3) For the permeability assay, tissue culture inserts were transferred into a 24-well plate containing 700 μL of pre-warmed (37°C) Ringer HEPES buffer (150 mM NaCl, 2.2 mM CaCl2, 0.2 mM MgCl2, 5.2 mM KCl, 2.8 mM glucose, 5 mM HEPES, and 6 mM NaHCO3, pH 7.4) in each well (basolateral compartment). […] Quantification of fluorescence (Na-F: excitation 490 nm, emission 514 nm; LY: excitation 430 nm, emission 535 nm) was carried out using a Chameleon microplate reader (Hidex, Turku, Finland). The apparent permeability coefficient (Papp) for Na-F and LY was calculated in centimeters/second (cm/s) according to the equation: […]

Data set [4] is described as follows: Recovery (mass balance) in permeability assays through mono-cultures. The following applies: human, pH 7.4; all mono-culture permeability experiments (hCMEC/D3, hBMEC, TY10). The data set is classed as in vitro ADME. Here is the method:
as §2, with “All experiments were performed at least in triplicate.” left out
(§4) Recovery (mass balance) of Na-F and LY was calculated with the following equation: […]
[43] where CAf and CBf are the final concentrations of the compound in the apical and basolateral compartment, respectively, CA0 is the initial concentration in the apical compartment, and VA and VB are the volumes in the apical and basolateral compartments, respectively. All results are expressed as means ± S.E.M.

A short description of data set [5]: Paracellular permeability (Papp) of marker compounds through TY10 mono-cultures on 24-well inserts. The data set is classed as in vitro ADME. The following applies: human, pH 7.4, TY10 monolayers (33°C 2 days, then 37°C 2 days), Greiner Bio-one transparent PET 3.0 μm inserts, mean ± S.E.M. Here is the method:
(§5) To further assess tight junction (TJ) integrity of endothelial cell layers, paracellular permeabilities of Na-F (MW 376.27) and LY (MW 550.39) were measured. These two fluorescent, non-P-glycoprotein (P-gp) substrate molecules have low BBB penetration and are widely used as barrier integrity markers for in vitro models. To obtain comparative data, hCMEC/D3 cells, hBMEC cells, and TY10 cells were seeded onto 24-well tissue culture inserts (Greiner Bio-one®, transparent polyethylene terephthalate (PET) membrane, 3.0 μm pore size, 0.6 × 10^6 pores/cm^2) and incubated at 37°C (5% CO2) (except TY10 cells) inside the CellZscope cell module (Figure 2). […]
TEER and CCL values before and after the assays were monitored continuously for integrity control. […]
as §3

Data set [6] is described as follows: Recovery (mass balance) in permeability assays through hBMEC mono-cultures and contact co-cultures. The data set is classed as in vitro ADME. The following applies: human, pH 7.4; all hBMEC mono-culture / co-culture experiments with SVG-A or HBPCT. Here is the method:
as §5, §3, §4

A short description of data set [7]: Paracellular permeability (Papp) through hBMEC contact co-culture with SVG-A astrocytes. The data set is classed as in vitro ADME. The conditions noted are these: human, mean ± S.E.M. Here is the method:
as §5, §3

A short description of data set [8]: Paracellular permeability (Papp) through hBMEC contact co-culture with HBPCT pericytes. The data set is classed as in vitro ADME. The following applies: human, mean ± S.E.M. The method, then:
as §5, §3

Setting [9] is: pH 7.4, hCMEC/D3 cultivated with growth medium containing 20% FBS.
[10] abbreviates: pH 7.4, hCMEC/D3 grown with initial medium containing 5% FBS.
Where [11] appears, read: pH 7.4, hBMEC mono-culture, growth medium 20% FBS, Greiner Bio-one transparent PET 3.0 μm inserts, 10 μg/mL apical, 1 h, 37°C.

In the case of `C[C@]12CCC(=O)C=C1CC[C@@H]1[C@@H]2[C@@H](O)C[C@@]2(C)[C@H]1CC[C@]2(O)C(=O)CO` [HC, hydrocortisone], the “Mean max. TEER ± S.E.M.” value in data set [1] (growth medium with additional HC 500 nM for 3 days (only apical), 4.5 × 10^4 cells/cm^2, at 3.19 d) is 43.2 (± 4.27) Ωcm^2; in data set [1] (growth medium with additional HC 1500 nM for 3 days (only apical), 4.5 × 10^4 cells/cm^2, at 3.19 d), 40.4 (± 0.646) Ωcm^2.
Regarding `C=CS(=O)(=O)c1cccc(N2C(=O)c3cc(S(=O)(=O)[O-])cc4c(N)c(S(=O)(=O)[O-])cc(c34)C2=O)c1.[Li+].[Li+]` [LY, Lucifer Yellow VS dilithium salt], the Papp at 1 h, 10 μg/mL was 11.7 ± 0.957 ×10⁻⁶ cm/s in data set [2] (setting [9]), 10 ± 0.498 ×10⁻⁶ cm/s in data set [2] (setting [10]), 5.39 ± 0.364 ×10⁻⁶ cm/s in data set [3] (setting [11]) and 9.68 ± 0.413 ×10⁻⁶ cm/s in data set [5]. This molecule also showed a recovery at 1 h, 10 μg/mL in data set [4] of 66 to 79%.
As to `O=C([O-])c1ccccc1-c1c2ccc(=O)cc-2oc2cc([O-])ccc12.[Na+].[Na+]` [Na-F, sodium fluorescein], the figures for the recovery at 1 h, 10 μg/mL in data set [6] and in data set [4] were 98 to 102% and 75 to 87%, respectively. Also, the Papp at 1 h, 10 μg/mL in data set [2] (setting [9]) stood at 13.4 ± 0.484 ×10⁻⁶ cm/s; in data set [2] (setting [10]), 12.5 ± 0.326 ×10⁻⁶ cm/s; in data set [7] (pH 7.4, hBMEC co-cultured with SVG-A, medium deprived of growth factors, n = 3), 6.88 ± 0.516 ×10⁻⁶ cm/s; in data set [7] (pH 7.4, hBMEC contact co-culture with SVG-A, medium with growth factors) it was 7.43 ± 0.2 ×10⁻⁶ cm/s; in data set [8] (pH 7.4, hBMEC co-cultured with HBPCT, medium deprived of growth factors, n = 3), 7.22 ± 0.455 ×10⁻⁶ cm/s; in data set [8] (pH 7.4, hBMEC contact co-culture with HBPCT, medium with growth factors) it was 8.26 ± 0.893 ×10⁻⁶ cm/s. The Papp at 1 h, 10 μg/mL in data set [3] (setting [11]) came out at 5.08 ± 0.22 ×10⁻⁶ cm/s; in data set [3] (pH 7.4, hBMEC monolayers cultured without growth factors, n = 3), 5.11 ± 0.0487 ×10⁻⁶ cm/s; in data set [5], 12.4 ± 0.155 ×10⁻⁶ cm/s.
On to `C[C@@H]1C[C@H]2[C@@H]3CCC4=CC(=O)C=C[C@]4(C)[C@@]3(F)[C@@H](O)C[C@]2(C)[C@@]1(O)C(=O)CO` [dexamethasone], for which the “Mean max. TEER ± S.E.M.” value in data set [1] (growth medium with dexamethasone 500 nM for 3 days (only apical), 9.0 × 10^4 cells/cm^2, at 4.15 d) is 35.9 (± 0.338) Ωcm^2; in data set [1] (growth medium with dexamethasone 1000 nM for 3 days (only apical), 9.0 × 10^4 cells/cm^2, at 4.15 d), 38.0 (± 1.26) Ωcm^2.
Consider human epidermal growth factor [hEGF], for which the “Mean max. TEER ± S.E.M.” value is 36.4 (± 0.902) Ωcm^2 in data set [1] (growth medium with additional hEGF 50 ng/mL for 3 days (only apical), 9.0 × 10^4 cells/cm^2, at 4.15 d) and 40.0 (± 1.94) Ωcm^2 in data set [1] (growth medium with additional hEGF 100 ng/mL for 3 days (only apical), 9.0 × 10^4 cells/cm^2, at 4.15 d).

For orientation: Papp means the rate of passage across a membrane or cell layer, normalised by area and donor concentration.

Source of the values: article PMC4176484, “Comparative study of four immortalized human brain capillary endothelial cell lines, hCMEC/D3, hBMEC, TY10, and BB19, and optimization of culture conditions, for an in vitro blood–brain barrier model for drug permeability studies” (Fluids and Barriers of the CNS, 2013).
